This note sets out measurements from patent publication US11001587B2, “Substituted indazoles as phosphatidylinositol kinase inhibitors” (CUROVIR AB, priority 2017, dated 2021).

Where two headings read alike, the source gives them in different places.

The nature of one data set: in vivo. The arrangement: species or system Sprague Dawley rats. Conditions: Sprague Dawley, rat, po. As for the experimental part: Based on previous toxicity tests with analogs and pharmacokinetic data, repeated dose toxicity and toxicokinetic studies were conducted to generate information on the toxic characteristics of some representative compounds of the invention, viz. Example 8 and Example 12, respectively, when administered orally by gavage to Sprague Dawley rats for a period of 7 consecutive days. The study plan for the studies was by current ICH guidelines for 7 days toxicity studies and the No Observed Adverse Effect Level (NOAEL) of Example 8 and Example 12 was determined as 60 mg/kg body weight/day and 50 mg/kg bodyweight/day respectively when administered once daily orally to Sprague Dawley rats for 7 consecutive days under the tested dose levels and experimental conditions employed.

In data set [1] the test system is Coxsackie B3 (Nancy strain) virus. Description: CVB3-induced pancreatitis mouse model. It is filed as in vivo. The note with it: Coxsackie B3 Nancy strain infected SJL mice, 4 different dosages, treated 2 h pre-infection then once daily for 3 days. As for the experimental part: Compounds of the present invention were studied in a CVB3 induced pancreatitis mouse model as described by van der Schaar et al (Antimicrob. Agents Chemother. 2013, 57(10):4971-4981). Animals (SJL mice) were infected intraperitoneally with 0.3 ml Coxsackie B3 (Nancy strain) virus (log TCID50=8). The animals were treated 2 h pre-infection and then once daily for 3 days. The animals were euthanized and organs were collected for pancreatitis evaluation by histopathology and for virus titer determination by immunohistochemistry and polymerase chain reaction (PCR). Pancreata were obtained from infected and uninfected control animals and from animals treated with 4 different dosages of Example 8, and HE-stained slides of the organs were prepared, studied and scored for signs of inflammation and necrosis on a scale from 0 to 3, as follows: 0=no abnormalities. […] The virus titer in the organs was determined by immunohistochemistry using the Dako 5-D8/1 monoclonal mouse antibody and the titer was scored on a scale from 0 to 4, where 0 indicates no infection and 4 corresponds to the highest determined virus titer (FIG. 4). The Ct values from PCR detection of virus titers were determined (FIG. 5). […] Corresponding studies were also performed on Examples 2, 8 and 20 at a dosage of 50 mg/kg/day and pancreatitis scoring and Ct values were determined (FIG. 6).

The next data set has as its system EV71. The data set can be described thus: Time of addition assay. It is filed as cell-based, Enterovirus 71. Conditions: Enterovirus A, 100 nM, EV71 at high titer. The procedure: The titer of the virus was determined by the standard method of tissue culture infective dose (TCID50) on cells. Briefly, cells were infected with 50 μl of virus suspension, and diluted 10-fold in media. The plates were incubated in 37° C. with 5% CO2 for 3-7 days and cells were inspected daily for CPE. After determining CPE, plates were stained with Gram's Crystal Violet solution and optical density was read at 540 nm. […] Substances at a final concentration of 0.1 nM-1 μM and the virus were added to the cells and incubated for 3-7 days depending on the virus and cell line used. As controls, uninfected cells and cells infected with virus (no substance) were included on each plate. The cells were stained with crystal violet after determining the CPE on infected controls and the optical density was read at 540 nm. The inhibition capacity was calculated as a % by comparison with non-infected and infected controls. Time of addition assay The assay was performed like the “in vitro assay in mammalian cell culture” described above with the exception that substance was added one hour pre inoculation (−1 h), at inoculation (0 h), and 2 hours (+2 h), 6 hours (+6 h) or 24 hours (+24 h) past inoculation. The virus EV71 was used at high titer for the test.

Broadly, the NOAEL is the highest tested level that showed no adverse finding. Turning to `Cc1cc(NCc2ccncc2)n2nc(C)c(-c3ccc4c(c3)c(C)nn4C)c2n1` [Example 8, 3-(1,3-dimethyl-1H-indazol-5-yl)-2,5-dimethyl-N-(pyridin-4-ylmethyl)pyrazolo[1,5-a]pyrimidin-7-amine], the NOAEL at 7 days in the data set “in vivo” was 60 mg/kg/day. In addition, the “Dose-response of pancreatitis scoring and virus titer” value in data set [1] is given as “very good dose-response”.

By inhibition is commonly meant how much of the control response was suppressed. With `Cc1nc(NCc2ccncc2)n2nc(C)c(-c3ccc4c(c3)c(C)nn4C)c2n1` [Example 20, 8-(1,3-dimethyl-1H-indazol-5-yl)-2,7-dimethyl-N-(pyridin-4-ylmethyl)pyrazolo[1,5-a][1,3,5]triazin-4-amine], the inhibition at 0.1 µM with EV71 (0 h, substance added at inoculation, read-out: Inhibition of cytopathogenic effect, 0 h) worked out at 94%; in the data set on EV71 (1 h, substance added one hour pre inoculation, read-out: Inhibition of cytopathogenic effect, −1 h), 85%; with EV71 (substance added 2 hours past inoculation, read-out: Inhibition of cytopathogenic effect, +2 h) it was 95%; with EV71 (substance added 6 hours past inoculation, read-out: Inhibition of cytopathogenic effect, +6 h), 99%; with EV71 (substance added 24 hours past inoculation, read-out: Inhibition of cytopathogenic effect, +24 h), 2%.
